Reference: publication PMC11434840, “Discovery of Benzopyrone-Based Candidates as Potential Antimicrobial and Photochemotherapeutic Agents through Inhibition of DNA Gyrase Enzyme B: Design, Synthesis, In Vitro and In Silico Evaluation” (Pharmaceuticals, 2024)
Read-outs that look alike come from different tables or passages of the source.

Assays:
[1] = system: Candida albicans ATCC 10231; test: Antimicrobial agar cup-plate assay, C. albicans; format: cell-based; conditions: 0.1 mL of compound in DMF, overnight incubation, mean ± SD, at least three experiments
Method: (§1) The antimicrobial activity of all newly synthesized compounds was determined using the agar cup-plate method using the Hi-Media agar medium. Xanthotoxin, tobramycin, and amphotericin B were used as reference drugs. All newly synthesized compounds were tested against two strains of Gram-positive bacteria (Bacillus subtilis ATCC 14579 and Staphylococcus aureus ATCC 25923), Gram-negative bacteria (Escherichia coli ATCC 25922), and yeast (Candida albicans ATCC 10231).
(§2) The nutrient agar medium consists of 0.3% of beef extract, 0.5% of peptone, 0.1% dipotassium hydrogen phosphate, and 1.5% agar. Broth cultures of the organisms were prepared by incubating slant agar seeded with the organisms overnight.
(§3) The prepared broth culture (0.02 mL) was carefully added to sterile Petri dishes. Then, 10 mL of the liquefied nutrient agar medium was poured into each dish, mixed uniformly, and allowed to solidify. Using a sterilized cork borer, cups (9 mm) were scooped out of the agar media contained in the Petri dishes. Each test compound (50 mg) was dissolved in 1 mL DMF (50 mg mL^−1), which was used as a stock solution to carry out the twofold dilution technique. A fixed volume (0.1 mL) of the tested compounds dissolved in dimethylformamide (DMF) was added. Each plate contained a cup filled with DMF to disregard the effect of solvent. Additionally, two other cups were filled with tobramycin and xanthotoxin being used as reference drugs. The plates were incubated overnight to examine the antimicrobial activity. Zones of inhibition obtained by each test compound were measured in millimeters and the results are recorded in Table 2.
(§4) GraphPad Prism-version 5 (GraphPad Software, Inc., La Jolla, CA, USA) was used for statistical analysis.

[2] = system: Bacillus subtilis ATCC 14579; test: Antimicrobial agar cup-plate assay, B. subtilis; format: cell-based; conditions: 0.1 mL of compound in DMF, overnight incubation, mean ± SD, at least three experiments
Method: as §1, §2, §3, §4

[3] = system: Staphylococcus aureus ATCC 25923; test: Antimicrobial agar cup-plate assay, S. aureus; format: cell-based; design: key: -: no activity; conditions: 0.1 mL of compound in DMF, overnight incubation, mean ± SD, at least three experiments
Method: as §1, §2, §3, §4

[4] = system: Bacillus subtilis ATCC 14579; test: Photosensitizing assay (MIC before and after UV irradiation, agar cup-plate); format: cell-based; conditions: for MIC: Bacillus subtilis, ATCC14579, light or radiation study; for photosensitizing activity against B. subtilis (in words): after 20 min of irradiation
Method: The photosensitizing activity was determined using the agar cup-plate method (described in Section 2.3) with Hi-Media agar medium. The antibacterial activity against Bacillus subtilis ATCC 14579 was measured before and after exposure to UV lamp (365 nm). The diameters of the inhibition zones were measured in mm and the results were compared with xanthotoxin. The tested organism used was Bacillus subtilis.
For the photosensitizing activity, xanthotoxin was used as a reference drug and DMF as a negative control. The minimum inhibitory concentrations (MIC) were determined using the agar cup-plate method. Each test compound (50 mg) was dissolved in 1 mL DMF (50 mg mL^−1), which was used as a stock solution to carry out the twofold dilution technique. The sample size for all the compounds was adjusted to 0.1 mL. The solution of the test compound (0.1 mL) was added to the cups. The plates were divided into test plates and duplicate plates. Before irradiation, the test plates were incubated in the dark at 37 °C for 3 h to permit the diffusion of the tested compounds through the agar layer. The duplicate plates were incubated overnight and used as a control for the determination of the antibacterial activity. The covers were removed from the test plates, and the dishes were exposed to UV lamp (365 nm) for 20 min. After irradiation, the plates were left overnight in the dark at 37 °C. MIC, the least concentration preventing visible bacterial growth, was determined in both the control and test, indicating the antibacterial and photosensitizing activity of the tested compounds, respectively.
To evaluate the significance of the difference in the results, each experiment was repeated at least three times. […] GraphPad Prism-version 5 (GraphPad Software, Inc., La Jolla, CA, USA) was used to perform statistical analysis of the results.

[5] = system: Escherichia coli ATCC 25922; test: Antimicrobial agar cup-plate assay, E. coli; format: cell-based; design: key to Inhibition Zone (mm) E. coli: -: no activity; conditions: for Inhibition Zone (mm) E. coli: 0.1 mL of compound in DMF, overnight incubation, mean ± SD, at least three experiments
Method: as §1, §2, §3, §4

[6] = 20 min, B. subtilis, after irradiation with UV lamp (365 nm) for 20 min (photosensitizing activity), 100 μL per cup, read-out: MIC (mg mL^−1) Test
[7] = 20 min, B. subtilis, after irradiation with UV lamp (365 nm) for 20 min (photosensitizing activity), read-out: MIC (mM) Test
[8] = B. subtilis, without irradiation (antibacterial activity), 100 μL per cup, read-out: MIC (mg mL^−1) Control
[9] = B. subtilis, without irradiation (antibacterial activity), read-out: MIC (mM) Control

Row | Compound | Inhibition Zone (mm) C. albicans [1] | Inhibition Zone (mm) B. subtilis [2] | Inhibition Zone (mm) S. aureus [3] | MIC [4, 6] | MIC [4, 7] | MIC [4, 8] | MIC [4, 9] | melting point | antibacterial activity against E. coli (in words) [5] | Inhibition Zone (mm) E. coli [5] | photosensitizing activity against B. subtilis (in words) [4] | MIC (mM) Test ([4]; B. subtilis, after irradiation with UV lamp (365 nm) for 20 min (photosensitizing activity)) | MIC (mg mL^−1) Test ([4]; B. subtilis, after irradiation with UV lamp (365 nm) for 20 min (photosensitizing activity), 100 μL per cup) | MIC (mM) Control ([4]; B. subtilis, without irradiation (antibacterial activity)) | MIC (mg mL^−1) Control ([4]; B. subtilis, without irradiation (antibacterial activity), 100 μL per cup)
1 | C[C@@H]1[C@H](O)[C@@H](C)/C=C/C=C/C=C/C=C/C=C/C=C/C=C/[C@H](O[C@@H]2O[C@H](C)[C@@H](O)[C@H](N)[C@@H]2O)C[C@@H]2O[C@](O)(C[C@@H](O)C[C@@H](O)[C@H](O)CC[C@@H](O)C[C@@H](O)CC(=O)O[C@H]1C)C[C@H](O)[C@H]2C(=O)O [Amphotercin B, amphotericin B, reference compound] | 14 ± 1.414 mm |  |  |  |  |  |  |  |  |  |  |  |  |  | 
2 | CCc1cc2c(C)cc(=O)oc2cc1OC(C)C(C)=O (centres unmarked) [Compound 2a, 6-Ethyl-4-methyl-7-(3-oxobutan-2-yloxy)-2H-1-benzopyran-2-one] | 11 ± 0.8165 mm | 15 ± 1.414 mm | 14 ± 1.414 mm | 6250 µg/mL | 22.8 mM | 6250 µg/mL | 22.8 mM | 95 to 97 °C | inactive | - |  |  |  |  | 
3 | CCc1cc2c(-c3ccccc3)cc(=O)oc2cc1OC(C)C(C)=O (centres unmarked) [Compound 2b, 6-Ethyl-7-(3-oxobutan-2-yloxy)-4-phenyl-2H-1-benzopyran-2-one] | 15 ± 1.414 mm | 14 ± 0.8165 mm | 22 ± 1.414 mm | 6250 µg/mL | 18.6 mM | 6250 µg/mL | 18.6 mM | 100 to 102 °C | inactive | - |  |  |  |  | 
4 | CCc1cc2c(C)cc(=O)oc2c2c(C)c(C)oc12 [Compound 3a, 9-Ethyl-2,3,7-trimethyl-5H-furo[2,3-h]benzopyran-5-one] | 16 ± 0.8165 mm | 20 ± 0.8165 mm | 30 ± 1.414 mm | 780 µg/mL | 3.04 mM | 780 µg/mL | 3.04 mM | 199 to 201 °C |  | 15 ± 1.414 mm | without any photosensitizing activity |  |  |  | 
5 | CCc1cc2c(-c3ccccc3)cc(=O)oc2c2c(C)c(C)oc12 [Compound 3b, 2,3-Dimethyl-9-ethyl-7-phenyl-5H-furo[2,3-h]benzopyran-5-one] | 15 ± 1.414 mm | 10 ± 1.414 mm | 22 ± 0.8165 mm | 3120 µg/mL | 9.82 mM | 3120 µg/mL | 9.82 mM | 90 to 92 °C |  | 16 ± 1.414 mm | without any photosensitizing activity |  |  |  | 
6 | CCc1cc2c(C)cc(=O)oc2c2c3c(oc12)CCCC3 [Compound 5a, 6-Ethyl-4-methyl-8,9,10,11-tetrahydro-2H-benzofuro[2,3-h]benzopyran-2-one] | 18 ± 0.8165 mm | 22 ± 0.8165 mm | 30 ± 0.8165 mm | 780 µg/mL | 2.76 mM | 3120 µg/mL | 11.1 mM |  |  | 16 ± 1.414 mm |  |  |  |  | 
7 | NC[C@H]1O[C@H](O[C@H]2[C@H](O)[C@@H](O[C@H]3O[C@H](CO)[C@@H](O)[C@H](N)[C@H]3O)[C@H](N)C[C@@H]2N)[C@H](N)C[C@@H]1O [Tobramycin, reference compound] |  |  | 21 ± 0.8165 mm |  |  |  |  |  |  | 20 ± 1.414 mm |  |  |  |  | 
8 | COc1c2occc2cc2ccc(=O)oc12 [Xanthotoxin, reference compound] | 15 ± 0.8165 mm | 13 ± 0.8165 mm | - |  |  |  |  |  |  | 25 ± 0.8165 mm |  | 6.94 mM | 1500 µg/mL | 57.82 mM | 12500 µg/mL
